Laboratory results published in patent US20030108523A1, “Cancer treatment system” (priority 2001, published 2003).

What was measured:
[1] = system: NF-κB; conditions: U937 cells; cited from earlier work
[2] = system: Mesothelioma cells; assay: Cell-growth inhibition assay (MTT colorimetric assay); format: cell-based, human
Description: Various mesothelioma cell lines were established from specimens obtained from pleural effusions of patients with established pleural malignant mesothelioma. Cell cultures were performed according to standard methods. Briefly, pleural effusions were centrifuged and the cell pellets were transferred into 25 cm^2 tissue culture flasks. The medium consisted of RPMI 1640 supplemented with 10% fetal bovine serum, 2 mM glutamine, 10 mM HEPES buffer, 50 U/ml penicillin, and 50 μg/ml streptomycin. Cultures were maintained in humidified atmosphere of 5% CO2 at 37° C. and examined daily. When cells were confluent, a trypsin-EDTA mixture in PBS was used to detach the cells, and the cultures were used between passages 5 and 20.
Mesothelioma cells were counted and dispensed into eight, 96-well tissue-culture plates (Costar, Cambridge, Mass.) at a concentration of 2,000 cells/well in 100 μl of culture medium. […] Culture plates were then incubated for different times between 0 and 168 hours and cell proliferation was measured every 24 hours. […]
Cell proliferation was determined by a colorimetric assay using MTT [3(4,5-dimethylthiazol-2yl)2,5-diphenyltetrazolium bromide], a tetrazolium salt which is reduced to a colored formazan product by reducing enzymes present only in metabolically active cells. (See Alley et al., “Feasibility of drug screening with panel of human tumor cell lines using a microculture tetrazolium assay” Cancer Res. 48: 589-601, 1988.) Thus, metabolically active cells such as cells undergoing division will produce more formazan, which can be detected by a spectrophotometer.
Briefly, twenty-five μls of MTT solution were added to culture wells containing cells as described above. […] Absorption of each well was measured using a spectrophotometer at 540 nm. The effect of α-MSH on cell proliferation was determined as percent OD difference in α-MSH treated wells relative to control wells. […]

[3] = in vivo; cited from earlier work

Row | Substance | NF-κB activation induced by TNF-α, endotoxin, ceramide and okadaic acid [1] | Dose dependence of the inhibitory effect on mesothelioma cell proliferation ([2]; 10^-6 to 10^-4 M, FIG. 2) | Concentration at which the inhibitory effect was most significant and consistent ([2]; FIG. 2) | Cell proliferation of treated versus control wells, early intervals ([2]; intervals between 24 and 72 h) | Potency in reducing fever relative to the parent peptide α-MSH [3]
1 | SYSMEHFRWGKPV (listed as Homo sapiens) [α-MSH, thirteen amino-acid peptide produced by post-translational processing of propiomelanocortin] | downregulates NF-κB activation | dose-dependent | 10^−4 M | no difference in cell proliferation | –
2 | [Nle4-D-Phe7]-α-MSH | – | – | – | – | approximately ten times more potent
